The record followed here is patent US9562035B2, “Benzamide derivative useful as FASN inhibitors for the treatment of cancer” (Janssen Pharmaceutica NV, priority 2013, dated 2017).

Where only a bound is given, the exact number is not on record here.

In assay [1] the target is T1, hFASN enzyme (full length) (Homo sapiens, UniProt P49327).
T1 construct: 10 μL hFASN enzyme (full length, 300 ng, purified in house); made in house
The assay can be described thus: Fatty Acid Synthase (FASN) Inhibition Scintillation Proximity Assay. The format is biochemical. Conditions: for IC50: mean where tested more than once, ~ = standard error of pIC50 larger than 0.5; for inhibition at 10 µM: read-out: FASN % Effect @1E−05M. The method in brief: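 Purified full-length human FASN (300 ng) incubated 60 min at room temperature with NADPH, [3H]-acetyl-CoA and malonyl-CoA in 100 mM KH2PO4 pH 7.5, 1 mM DTT; compound at 30 μM to 0.01 μM. [3H]-palmitate captured by SPA imaging beads; IC50 from 4-parameter fit, reported as pIC50.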
(In general: SPA uses beads or plates that emit light when radiolabelled molecules are held near them.)

Assay [2] deals with T2, FASN Keto-reductase Domain (Homo sapiens, UniProt P49327).
T2 construct: 10 μL hFASN enzyme (full length, 300 ng, purified in house) and 360 μM NADPH; made in house
The assay can be described thus: Fatty Acid Synthase Keto-Reductase Domain (FASN KR) Inhibition. Format: biochemical. Particulars: mean where tested more than once; read-out: FASN K-R Domain pIC50 (converted). The method in brief:
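Full-length human FASN (300 ng) in 100 mM KH2PO4 pH 7.5 with 360 μM NADPH and 180 mM ethyl acetoacetate (stock); A340 decrease read over 20 min at room temperature.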

The subject of assay [3] is A2780 ovarian cells. The assay can be described thus: A2780 Ovarian Cell Proliferation Assay in Lipid Reduced Medium, without Palmitate. Format: cell-based. Conditions: Homo sapiens, A2780; lipid reduced medium, without palmitate, 96 h, MTT; read-out: Proliferation A2780 w/o Palmitate pIC50 (converted). Summed up: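 A2780 cells were seeded in 10% FCS medium and switched next day to 10% lipid-reduced serum without palmitate. Compounds at 0.01–30 μM were added with 0.2% DMSO, 0.2% fatty-acid-free BSA and 0.25% ethanol final. After 96 h, MTT absorbance at 544 nm was normalized to plate controls, and IC50/pIC50 came from a 4-parameter logistic fit.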

Assay [4] relates to A2780 ovarian cells. The assay can be described thus: A2780 Ovarian Cell Proliferation Assay in Lipid Reduced Medium, with Palmitate (control). Particulars: Homo sapiens, A2780; lipid reduced medium, 25 μM palmitate, 96 h, MTT; read-out: Proliferation A2780 with Palmitate pIC50 (converted). Format: cell-based. Summed up:
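A2780 cells were seeded in RPMI1640 with 10% FCS, then switched next day to medium with 10% lipid-reduced serum. Compound was added with final 25 μM palmitate, 0.2% fatty-acid-free BSA and 0.2% DMSO, and incubated 96 h at 37 °C. Read-out was MTT absorbance at 544 nm; pIC50 = −log(IC50) from curve fit.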

T2 sequence (P49327 whole entry, the tested form may be a part): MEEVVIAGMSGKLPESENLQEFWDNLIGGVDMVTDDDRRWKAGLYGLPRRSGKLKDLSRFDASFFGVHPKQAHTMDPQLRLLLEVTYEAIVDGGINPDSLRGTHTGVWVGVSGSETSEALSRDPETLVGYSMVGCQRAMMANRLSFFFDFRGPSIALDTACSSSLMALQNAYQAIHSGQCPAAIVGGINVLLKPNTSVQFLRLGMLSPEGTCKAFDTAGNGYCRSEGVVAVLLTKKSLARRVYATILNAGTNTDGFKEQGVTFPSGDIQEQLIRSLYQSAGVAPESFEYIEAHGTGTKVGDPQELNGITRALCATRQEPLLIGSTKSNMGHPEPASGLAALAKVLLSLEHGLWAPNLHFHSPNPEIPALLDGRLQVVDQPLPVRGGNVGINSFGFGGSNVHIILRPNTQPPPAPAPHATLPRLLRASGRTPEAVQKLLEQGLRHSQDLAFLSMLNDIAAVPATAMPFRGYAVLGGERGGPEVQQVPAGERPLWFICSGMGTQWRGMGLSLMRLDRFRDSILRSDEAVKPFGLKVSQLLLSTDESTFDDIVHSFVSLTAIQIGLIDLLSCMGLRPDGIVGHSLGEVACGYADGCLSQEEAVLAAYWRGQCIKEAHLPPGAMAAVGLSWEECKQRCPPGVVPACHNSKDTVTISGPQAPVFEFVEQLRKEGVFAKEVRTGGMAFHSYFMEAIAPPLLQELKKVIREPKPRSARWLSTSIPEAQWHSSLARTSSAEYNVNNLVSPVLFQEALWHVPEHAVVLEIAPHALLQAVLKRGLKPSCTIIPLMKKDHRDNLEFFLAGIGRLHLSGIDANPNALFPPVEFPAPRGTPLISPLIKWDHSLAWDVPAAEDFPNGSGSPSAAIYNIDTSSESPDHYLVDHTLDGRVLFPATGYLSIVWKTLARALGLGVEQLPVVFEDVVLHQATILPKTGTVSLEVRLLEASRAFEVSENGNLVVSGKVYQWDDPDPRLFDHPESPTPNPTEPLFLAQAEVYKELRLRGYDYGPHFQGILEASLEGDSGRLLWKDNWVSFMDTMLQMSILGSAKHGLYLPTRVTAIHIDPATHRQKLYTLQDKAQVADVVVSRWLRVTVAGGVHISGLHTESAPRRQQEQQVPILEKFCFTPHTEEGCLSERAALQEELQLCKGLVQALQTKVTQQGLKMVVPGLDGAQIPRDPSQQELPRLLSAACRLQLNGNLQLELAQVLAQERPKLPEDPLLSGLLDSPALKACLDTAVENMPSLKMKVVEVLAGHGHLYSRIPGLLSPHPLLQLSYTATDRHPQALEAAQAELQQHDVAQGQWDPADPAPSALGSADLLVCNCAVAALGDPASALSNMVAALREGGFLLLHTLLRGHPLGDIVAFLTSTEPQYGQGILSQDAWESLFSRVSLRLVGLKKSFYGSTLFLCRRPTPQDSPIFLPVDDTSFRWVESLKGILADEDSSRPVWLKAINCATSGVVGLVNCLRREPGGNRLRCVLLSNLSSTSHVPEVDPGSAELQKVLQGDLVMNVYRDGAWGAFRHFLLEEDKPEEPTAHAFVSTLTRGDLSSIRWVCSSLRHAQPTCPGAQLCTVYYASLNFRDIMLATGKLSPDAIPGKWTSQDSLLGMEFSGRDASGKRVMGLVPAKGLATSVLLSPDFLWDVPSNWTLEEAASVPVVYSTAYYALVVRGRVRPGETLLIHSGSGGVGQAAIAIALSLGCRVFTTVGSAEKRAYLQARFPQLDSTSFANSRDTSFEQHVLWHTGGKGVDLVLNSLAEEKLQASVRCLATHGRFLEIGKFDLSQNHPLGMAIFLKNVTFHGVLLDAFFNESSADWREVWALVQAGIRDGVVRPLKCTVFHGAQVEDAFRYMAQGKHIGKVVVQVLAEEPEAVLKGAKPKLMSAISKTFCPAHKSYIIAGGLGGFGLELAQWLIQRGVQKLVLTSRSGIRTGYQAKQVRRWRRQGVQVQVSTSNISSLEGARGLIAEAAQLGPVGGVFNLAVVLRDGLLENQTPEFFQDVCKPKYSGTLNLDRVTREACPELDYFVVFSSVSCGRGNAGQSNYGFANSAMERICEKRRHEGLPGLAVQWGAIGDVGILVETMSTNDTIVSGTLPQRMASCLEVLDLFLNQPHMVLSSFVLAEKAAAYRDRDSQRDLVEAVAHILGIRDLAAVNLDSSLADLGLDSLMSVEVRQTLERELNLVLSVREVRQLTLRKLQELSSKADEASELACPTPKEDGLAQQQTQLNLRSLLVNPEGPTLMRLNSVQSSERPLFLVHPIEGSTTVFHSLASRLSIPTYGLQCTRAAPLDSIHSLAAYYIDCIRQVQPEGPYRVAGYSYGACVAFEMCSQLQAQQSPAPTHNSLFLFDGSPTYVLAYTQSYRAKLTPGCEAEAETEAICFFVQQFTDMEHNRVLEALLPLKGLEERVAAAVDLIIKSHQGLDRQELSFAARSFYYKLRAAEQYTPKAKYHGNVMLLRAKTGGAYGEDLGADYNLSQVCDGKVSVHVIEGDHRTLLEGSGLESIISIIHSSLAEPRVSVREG
T1 sequence (P49327 whole entry): as the sequence (P49327 whole entry, the tested form may be a part) above

As to `Cc1ccc(C(=O)N2CCC(c3ccc(-c4cnn(C)c4)cc3)CC2)cc1NC(=O)c1cccnc1Cl` [Compound 101, 2-Chloro-N-(2-methyl-5-(4-(4-(1-methyl-1H-pyrazol-4-yl)phenyl)piperidine-1-carbonyl)phenyl)nicotinamide], the IC50 in assay [1] is 47.9 nM; in assay [2], 155 nM; in the assay with A2780 ovarian cells [3], 91.2 nM; in the assay on A2780 ovarian cells [4], above 10000 nM. Moreover, the inhibition at 10 µM in assay [1] turned out to be 105%.
Consider `CCCCCN1CC(C(=O)Nc2cc(C(=O)N3CCC(c4ccc(-c5cnn(C)c5)cc4)CC3)ccc2C)C1` [Compound 214, N-(2-methyl-5-(4-(4-(1-methyl-1H-pyrazol-4-yl)phenyl)piperidine-1-carbonyl)phenyl)-1-pentylazetidine-3-carboxamide], for which the IC50 in assay [1] was 166 nM; in assay [2], 282 nM; with A2780 ovarian cells [3], 275 nM; in the assay with A2780 ovarian cells [4] it was 9550 nM. The inhibition at 10 µM in assay [1] turned out to be 107%.
The like results for `CCCCC(C)N1CCC(C(=O)Nc2cc(C(=O)N3CCC(c4ccc(-c5cnn(C)c5)cc4)CC3)ccc2C)C1` (stereo not drawn) [Compound 197, 1-(hexan-2-yl)-N-(2-methyl-5-(4-(4-(1-methyl-1H-pyrazol-4-yl)phenyl)piperidine-1-carbonyl)phenyl)pyrrolidine-3-carboxamide] were, in that order, 110 nM, 309 nM, 288 nM, above 10000 nM and 98%.
`Cc1ccc(C(=O)N2CCC(c3ccc(-c4cnn(C)c4)cc3)CC2)cc1NC(=O)c1ccc2c(c1)OCO2` [Compound 133, N-(2-methyl-5-(4-(4-(1-methyl-1H-pyrazol-4-yl)phenyl)piperidine-1-carbonyl)phenyl)benzo[d][1,3]dioxole-5-carboxamide]: the IC50 was 37.2 nM in assay [1], 74.1 nM in assay [2], 91.2 nM with A2780 ovarian cells [3] and above 10000 nM in the assay with A2780 ovarian cells [4]. Besides, the inhibition at 10 µM in assay [1] was 96%.
For the molecule `Cc1ccc(C(=O)N2CCC(c3ccc(-c4cnn(C)c4)cc3)CC2)cc1NC(=O)c1ccc(N(C)C(C)C)nc1` [Compound 92, 6-(Isopropyl(methyl)amino)-N-(2-methyl-5-(4-(4-(1-methyl-1H-pyrazol-4-yl)phenyl)piperidine-1-carbonyl)phenyl)nicotinamide], the IC50 is 16.2 nM in assay [1], 30.9 nM in assay [2], 9.12 nM with A2780 ovarian cells [3] and 6030 nM in the assay with A2780 ovarian cells [4]. Further, in assay [1], the inhibition at 10 µM was determined as 100%.
As to `Cc1ccc(C(=O)N2CCC(c3ccc(-c4cnn(C)c4)cc3)CC2)cc1NC(=O)c1ccc(F)cc1` [Compound 116, 4-fluoro-N-(2-methyl-5-(4-(4-(1-methyl-1H-pyrazol-4-yl)phenyl)piperidine-1-carbonyl)phenyl)benzamide], the IC50 was 43.7 nM in assay [1], 93.3 nM in assay [2], 126 nM in the assay on A2780 ovarian cells [3] and above 10000 nM in the assay with A2780 ovarian cells [4]. In addition, the inhibition at 10 µM in assay [1] came out at 101%.
Taken in the same sequence, the figures for `Cc1ccc(C(=O)N2CCC(c3ccc(-c4cnn(C)c4)cc3)CC2)cc1NC(=O)C1CC1` [Compound #89, N-(2-methyl-5-(4-(4-(1-methyl-1H-pyrazol-4-yl)phenyl)piperidine-1-carbonyl)phenyl)cyclopropanecarboxamide] were 20.4 nM, 66.1 nM, 151 nM, above 10000 nM and 103%.
As to `Cn1cc(-c2ccc(C3CCN(C(=O)c4ccc(OCc5ccccc5)c(NC(=O)c5ccc(Cl)nc5)c4)CC3)cc2)cn1` [Compound 262, N-(2-(benzyloxy)-5-(4-(4-(1-methyl-1H-pyrazol-4-yl)phenyl)piperidine-1-carbonyl)phenyl)-6-chloronicotinamide], the IC50 was 263 nM in assay [1], 1050 nM in assay [2], 617 nM in the assay with A2780 ovarian cells [3] and above 10000 nM in the assay on A2780 ovarian cells [4]. Besides, the inhibition at 10 µM in assay [1] was determined as 89%.
The like results for `Cc1ccc(C(=O)N2CCC(c3ccc(-c4cnn(C)c4)cc3)CC2)cc1NC(=O)c1ccc(F)cc1Cl` [Compound 147, 2-chloro-4-fluoro-N-(2-methyl-5-(4-(4-(1-methyl-1H-pyrazol-4-yl)phenyl)piperidine-1-carbonyl)phenyl)benzamide] were, in that order, 34.7 nM, 138 nM, 234 nM, above 10000 nM and 107%.
The like results for `Cc1ccc(C(=O)N2CCC(c3ccc(-n4ccnc4)cc3)CC2)cc1NC(=O)c1ccc(NC(C)C)nc1` [Compound #15, N-(5-(4-(4-(1H-imidazol-1-yl)phenyl)piperidine-1-carbonyl)-2-methylphenyl)-6-(isopropylamino)nicotinamide] were, in that order, 22.9 nM, 37.2 nM, around 47.9 nM, above 15100 nM and 109%.
Turning to `Cc1ccc(C(=O)N2CCC(c3ccc(-c4cnn(C)c4)cc3)CC2)cc1NC(=O)c1cnc(N2CCOCC2)nc1` [Compound 152, N-(2-methyl-5-(4-(4-(1-methyl-1H-pyrazol-4-yl)phenyl)piperidine-1-carbonyl)phenyl)-2-morpholinopyrimidine-5-carboxamide], the IC50 in assay [1] was 21.9 nM; in assay [2], 17.4 nM; in the assay with A2780 ovarian cells [3], 12.3 nM; with A2780 ovarian cells [4] it was 7240 nM. In assay [1], the inhibition at 10 µM was found to be 106%.
The like results for `Cc1ccc(C(=O)N2CC(c3ccc(-c4cnn(C)c4)cc3)C2)cc1NC(=O)C1CC1` [Compound 142, N-(2-methyl-5-(3-(4-(1-methyl-1H-pyrazol-4-yl)phenyl)azetidine-1-carbonyl)phenyl)cyclopropanecarboxamide] were, in that order, 46.8 nM, 110 nM, 107 nM, above 10000 nM and 106%.
The like results for `Cc1ccc(C(=O)N2CC(c3ccc(-c4cnn(C)c4)cc3)C2)cc1NC(=O)c1ccncc1` [Compound 139, N-(2-methyl-5-(3-(4-(1-methyl-1H-pyrazol-4-yl)phenyl)azetidine-1-carbonyl)phenyl)isonicotinamide] were, in that order, 31.6 nM, 95.5 nM, 97.7 nM, above 10000 nM and 101%.
Take `Cc1ccc(C(=O)N2CC(c3ccc(-c4cnn(C)c4)cc3)C2)cc1NC(=O)C1CCC1` [Compound 143, N-(2-methyl-5-(3-(4-(1-methyl-1H-pyrazol-4-yl)phenyl)azetidine-1-carbonyl)phenyl)cyclobutanecarboxamide]: the IC50 in assay [1] was 44.7 nM; in assay [2] it was 170 nM; with A2780 ovarian cells [3], 302 nM; with A2780 ovarian cells [4], above 10000 nM. Besides, the inhibition at 10 µM in assay [1] stood at 114%.
The like results for `Cc1ccc(C(=O)N2CCC(c3ccc(-c4cnn(C)c4)cc3)CC2)cc1NC(=O)C1CN(C)C1` [Compound 222, 1-methyl-N-(2-methyl-5-(4-(4-(1-methyl-1H-pyrazol-4-yl)phenyl)piperidine-1-carbonyl)phenyl)azetidine-3-carboxamide] were, in that order, 22.4 nM, 60.3 nM, 8.71 nM, above 10000 nM and 113%.
Taken in the same sequence, the figures for `Cc1ccc(C(=O)N2CCC(c3ccc(-c4cnn(C)c4)cc3)CC2)cc1NC(=O)C1CCCC1` [Compound 88, N-(2-methyl-5-(4-(4-(1-methyl-1H-pyrazol-4-yl)phenyl)piperidine-1-carbonyl)phenyl)cyclopentanecarboxamide] were 35.5 nM, 126 nM, 209 nM, above 10000 nM and 100%.
The like results for `Cc1ccc(C(=O)N2CCC(c3ccc(-c4cnn(C)c4)cc3)CC2)cc1NC(=O)C1CCN(C2CCC2)CC1` [Compound 209, 1-cyclobutyl-N-(2-methyl-5-(4-(4-(1-methyl-1H-pyrazol-4-yl)phenyl)piperidine-1-carbonyl)phenyl)piperidine-4-carboxamide] were, in that order, 31.6 nM, 74.1 nM, 10 nM, above 10000 nM and 105%.
Consider `Cc1ccc(C(=O)N2CC(c3ccc(-c4ccncc4)cc3)C2)cc1NC(=O)c1ccc(NC(C)C)nc1` [Compound 31, 6-(isopropylamino)-N-(2-methyl-5-(3-(4-(pyridin-4-yl)phenyl)azetidine-1-carbonyl)phenyl)nicotinamide], for which the IC50 in assay [1] was around 17.8 nM; in assay [2], 52.5 nM; in the assay with A2780 ovarian cells [3] it was 25.1 nM; with A2780 ovarian cells [4], 1660 nM. Further, the inhibition at 10 µM in assay [1] was 104%.
